Data: patent publication US4971969A, “Pharmaceutical composition containing 1-(mono- or bis(trifluoromethyl)-2-pyridinyl)piperazines” (priority 1988, dated 1990)
Read-outs that look alike come from different tables or passages of the source.

Experiments:
[1] = molecular target: T1, 5HT1A receptors (Rattus norvegicus, UniProt P19327); assay: Binding test: displacement of [^3 H]-8-OH-DPAT from membranes of the rat hippocampus (5HT1A)
T1 construct: membranes of the rat hippocampus; from tissue; host or cells: rat hippocampus membranes
T1 sequence (P19327 1-422): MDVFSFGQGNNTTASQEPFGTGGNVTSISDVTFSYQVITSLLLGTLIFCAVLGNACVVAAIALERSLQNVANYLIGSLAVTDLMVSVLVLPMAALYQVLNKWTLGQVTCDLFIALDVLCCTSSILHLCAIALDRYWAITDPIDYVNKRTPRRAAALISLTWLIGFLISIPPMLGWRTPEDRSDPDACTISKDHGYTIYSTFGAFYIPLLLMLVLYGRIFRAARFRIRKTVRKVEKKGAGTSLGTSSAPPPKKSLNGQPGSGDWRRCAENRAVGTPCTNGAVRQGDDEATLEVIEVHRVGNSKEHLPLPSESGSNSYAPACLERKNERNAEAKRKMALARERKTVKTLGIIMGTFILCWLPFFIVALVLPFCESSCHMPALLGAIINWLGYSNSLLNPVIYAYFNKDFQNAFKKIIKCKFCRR
Description: (§1) This test is carried out according to the protocol of PEROUTKA, S.J. ["Selective labelling of 5-HT1A and 5HT1B binding sites in bovine brain" BRAIN RESEARCH 344, p. 167-171 (1985)]. In this test, the affinity for 5HT1A receptors is determined by the Capacity of the compounds to displace [^3 H]-8-OH-DPAT from the membranes of the rat hippocampus; similarly, the affinity for 5HT1B receptors is determined by the capacity of the compounds to displace [^3 H]-5HT from the membranes of the rat striatum.
(§2) The results recorded in Table II below show the pKi values calculated according to the abovementioned protocol.

[2] = test system: 5HT1B; assay: Penile erection test (5HT1B agonist potential); format: in vivo; conditions: rats; for minimal effective dose: Rattus norvegicus, sc, administered subcutaneously, read-out: ERECTION OF THE PENIS, minimum dose which leads to an erection of the penis, subcutaneous; for ERECTION OF THE PENIS, activity when administered orally: administered orally (PO)
From the text: This test, carried out according to the protocol of BERENDSEN H.H.G. and BROEKKAMP C.L.E. ["Drug induced penile erections in rats: indication of serotonin 1B receptor mediation--EUROPEAN J. PHARMACOL. 135, 279-287 (1987")]enables the 5HT1B agonist potentials of the various compounds to be assessed.
The results recorded in Table II below show the minimum dose in mg.kg^-1 administered subcutaneously which leads to an erection of the penis in rats, as well as the activity when administered orally.

[3] = molecular target: T2, 5HT1B receptors (Rattus norvegicus, UniProt P28564); assay: Binding test: displacement of [^3 H]-5HT from membranes of the rat striatum (5HT1B)
T2 construct: membranes of the rat striatum; from tissue; host or cells: rat striatum membranes
T2 sequence (P28564 whole entry): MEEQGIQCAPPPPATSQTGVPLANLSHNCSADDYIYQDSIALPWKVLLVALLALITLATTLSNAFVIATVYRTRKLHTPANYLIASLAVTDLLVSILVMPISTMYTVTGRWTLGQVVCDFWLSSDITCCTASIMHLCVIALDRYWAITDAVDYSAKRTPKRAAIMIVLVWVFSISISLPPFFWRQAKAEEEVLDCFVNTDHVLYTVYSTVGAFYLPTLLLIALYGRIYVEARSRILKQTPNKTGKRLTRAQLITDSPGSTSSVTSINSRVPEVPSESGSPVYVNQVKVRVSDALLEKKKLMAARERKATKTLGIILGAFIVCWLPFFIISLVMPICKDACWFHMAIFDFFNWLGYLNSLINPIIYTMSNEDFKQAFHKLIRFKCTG
Description: as §1, §2

[4] = rat hippocampus membranes, [^3 H]-8-OH-DPAT, read-out: BINDING pKi 5HT1A (converted)
[5] = rat striatum membranes, [^3 H]-5HT, read-out: BINDING pKi 5HT1B (converted)

FC(F)(F)c1ccc(N2CCNCC2)nc1 [Compound 1, 1-(5-trifluoromethyl-2-pyridinyl)piperazine]
Ki [1, 4]: > 10 µM
minimal effective dose [2]: 1 mg/kg
ERECTION OF THE PENIS, activity when administered orally [2]: > 46 mg/kg
Ki [3, 5]: 501 nM

FC(F)(F)c1ccnc(N2CCNCC2)c1 [Compound 2, 1-(4-trifluoromethyl-2-pyridinyl)piperazine]
Ki [1, 4]: 2.51 µM
minimal effective dose [2]: 1 mg/kg
ERECTION OF THE PENIS, activity when administered orally [2]: 2.2 mg/kg
Ki [3, 5]: 126 nM

FC(F)(F)c1ccc(N2CCNCC2)nc1Cl [Compound 3]
Ki [1]: 2.51 µM
minimal effective dose [2]: 0.46 mg/kg
ERECTION OF THE PENIS, activity when administered orally [2]: 4.6 mg/kg
Ki [3]: 100 nM

FC(F)(F)c1cnc(N2CCNCC2)cc1C(F)(F)F [Compound 4, 1-[4,5-bis(trifluoromethyl)-2-pyridinyl]piperazine]
Ki [1, 4]: 79.4 µM
minimal effective dose [2]: 10 mg/kg
ERECTION OF THE PENIS, activity when administered orally [2]: 2.2 mg/kg
Ki [3, 5]: 398 nM

FC(F)(F)c1cnc(N2CCNCC2)c(Cl)c1 [Compound 5, 1-(3-chloro-5-trifluoromethyl-2-pyridinyl)piperazine]
Ki [1, 4]: 3.98 µM
minimal effective dose [2]: 4.6 mg/kg
ERECTION OF THE PENIS, activity when administered orally [2]: 10 mg/kg
Ki [3, 5]: 501 nM
